Assay results published in patent publication US20090311217A1, “3-SUBSTITUTED-1H-INDOLE COMPOUNDS, THEIR USE AS MTOR KINASE AND PI3 KINASE INHIBITORS, AND THEIR SYNTHESES” (priority 2008, published 2009).
pIC50: −log10 of the molar value. Where two headings read alike, the source gives them in different places.

Experiments:
PI3K-alpha = PI3K-alpha (Homo sapiens, UniProt P42336); assay: PI3K-alpha fluorescence polarization assay; type: biochemical; settings: read-out: PI3Kα Avg. IC50
PI3K-gamma = PI3K-gamma (Homo sapiens, UniProt P48736); assay: PI3K-gamma fluorescence polarization assay; type: biochemical
Procedure: PI3K-Alpha, PI3K-Beta, PI3K-Gamma, and PI3K-delta Fluorescence Polarization Assay Protocols
PI3-Kinase reactions were performed in 5 mM HEPES, pH 7, 2.5 mM MgCl2, and 25 μM ATP, with diC8-PI(4,5)P2 (Echelon, Salt Lake City Utah) as substrate. Nunc 384-well black polypropylene fluorescent plates were used for PI3K assays. Reactions were quenched by the addition of EDTA to a final concentration of 10 mM. Final reaction volumes were 10 μl. For evaluation of PI3K inhibitors, 5 ng of enzyme (PI3K-alpha, beta, gamma, or delta) and 2.5 μM of substrate was used per […] reaction volume, and inhibitor concentrations ranged from 100 μM to 20 μM; the final level of DMSO in reactions never exceeded 2%. Reactions were allowed to proceed for one hour at 25° C. After 1 hour, GST-tagged GRP1 (general receptor for phosphoinositides) PH domain fusion protein was added to a final concentration of 100 nM, and BODIPY-TMRI(1,3,4,5)P4 (Echelon) was also added to a final concentration of 5 nM. Final sample volumes were 25 μl with a final DMSO concentration of 0.8%. Assay Plates were read on Perkin-Elmer Envision plate readers with appropriate filters for Tamra [BODIPY-TMRI(1,3,4,5)P4]. Data obtained were used to calculate enzymatic activity and enzyme inhibition by inhibitor compounds.

PI3K-gamma, sequence (P48736 whole entry, species assumed): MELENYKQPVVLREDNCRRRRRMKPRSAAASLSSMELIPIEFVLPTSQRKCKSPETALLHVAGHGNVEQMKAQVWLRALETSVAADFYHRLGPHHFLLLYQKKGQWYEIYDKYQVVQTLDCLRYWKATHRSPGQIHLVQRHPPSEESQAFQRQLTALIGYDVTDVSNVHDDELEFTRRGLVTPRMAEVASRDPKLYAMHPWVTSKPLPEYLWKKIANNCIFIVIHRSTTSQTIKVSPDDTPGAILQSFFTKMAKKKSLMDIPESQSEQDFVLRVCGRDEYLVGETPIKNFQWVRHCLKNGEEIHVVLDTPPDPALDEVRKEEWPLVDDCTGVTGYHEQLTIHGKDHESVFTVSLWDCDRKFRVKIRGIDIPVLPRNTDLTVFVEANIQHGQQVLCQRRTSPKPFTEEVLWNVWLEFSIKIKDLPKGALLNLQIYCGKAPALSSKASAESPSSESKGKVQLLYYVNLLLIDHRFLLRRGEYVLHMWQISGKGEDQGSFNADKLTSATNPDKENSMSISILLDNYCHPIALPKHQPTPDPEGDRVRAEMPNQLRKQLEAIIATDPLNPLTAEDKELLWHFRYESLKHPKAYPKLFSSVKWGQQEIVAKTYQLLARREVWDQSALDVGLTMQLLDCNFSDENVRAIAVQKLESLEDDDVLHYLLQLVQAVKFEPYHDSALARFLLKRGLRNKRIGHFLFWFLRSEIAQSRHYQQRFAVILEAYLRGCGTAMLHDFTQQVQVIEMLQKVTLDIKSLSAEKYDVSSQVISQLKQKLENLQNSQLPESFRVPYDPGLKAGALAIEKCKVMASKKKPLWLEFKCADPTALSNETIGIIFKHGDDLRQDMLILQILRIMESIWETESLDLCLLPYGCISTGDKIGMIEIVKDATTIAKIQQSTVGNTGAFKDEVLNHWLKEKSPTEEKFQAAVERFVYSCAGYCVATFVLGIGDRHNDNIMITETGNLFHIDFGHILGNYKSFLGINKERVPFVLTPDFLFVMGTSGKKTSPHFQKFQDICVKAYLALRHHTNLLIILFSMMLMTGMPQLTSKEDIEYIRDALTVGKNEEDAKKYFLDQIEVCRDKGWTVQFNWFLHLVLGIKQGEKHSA
PI3K-alpha, sequence (P42336 whole entry, species assumed): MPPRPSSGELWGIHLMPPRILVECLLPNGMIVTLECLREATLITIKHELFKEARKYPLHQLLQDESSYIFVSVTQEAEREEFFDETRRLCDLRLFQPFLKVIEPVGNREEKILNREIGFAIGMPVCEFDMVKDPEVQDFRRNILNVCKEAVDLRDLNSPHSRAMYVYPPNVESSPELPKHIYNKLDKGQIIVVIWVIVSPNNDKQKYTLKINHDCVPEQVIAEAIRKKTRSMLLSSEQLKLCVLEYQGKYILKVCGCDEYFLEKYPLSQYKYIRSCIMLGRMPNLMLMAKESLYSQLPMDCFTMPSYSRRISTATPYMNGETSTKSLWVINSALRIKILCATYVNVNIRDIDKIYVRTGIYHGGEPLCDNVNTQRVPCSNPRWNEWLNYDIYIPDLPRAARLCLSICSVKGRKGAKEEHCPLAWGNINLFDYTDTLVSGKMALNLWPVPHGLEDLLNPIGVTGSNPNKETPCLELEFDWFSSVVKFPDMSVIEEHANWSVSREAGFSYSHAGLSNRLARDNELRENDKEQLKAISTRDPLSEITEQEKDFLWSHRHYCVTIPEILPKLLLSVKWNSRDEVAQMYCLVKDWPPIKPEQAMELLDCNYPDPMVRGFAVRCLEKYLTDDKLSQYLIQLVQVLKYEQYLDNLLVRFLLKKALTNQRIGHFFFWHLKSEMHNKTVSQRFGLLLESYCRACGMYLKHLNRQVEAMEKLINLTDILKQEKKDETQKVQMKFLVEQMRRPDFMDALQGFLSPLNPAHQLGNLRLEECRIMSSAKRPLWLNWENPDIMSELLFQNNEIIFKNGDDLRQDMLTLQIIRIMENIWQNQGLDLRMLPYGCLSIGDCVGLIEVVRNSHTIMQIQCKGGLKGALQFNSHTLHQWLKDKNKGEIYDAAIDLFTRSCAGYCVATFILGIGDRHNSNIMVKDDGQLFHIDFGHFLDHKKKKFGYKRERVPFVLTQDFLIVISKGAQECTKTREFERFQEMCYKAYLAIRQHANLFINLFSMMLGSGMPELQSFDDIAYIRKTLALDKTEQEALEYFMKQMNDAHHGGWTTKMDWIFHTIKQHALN
PI3K-alpha, sequence (P27986 whole entry partner, species assumed): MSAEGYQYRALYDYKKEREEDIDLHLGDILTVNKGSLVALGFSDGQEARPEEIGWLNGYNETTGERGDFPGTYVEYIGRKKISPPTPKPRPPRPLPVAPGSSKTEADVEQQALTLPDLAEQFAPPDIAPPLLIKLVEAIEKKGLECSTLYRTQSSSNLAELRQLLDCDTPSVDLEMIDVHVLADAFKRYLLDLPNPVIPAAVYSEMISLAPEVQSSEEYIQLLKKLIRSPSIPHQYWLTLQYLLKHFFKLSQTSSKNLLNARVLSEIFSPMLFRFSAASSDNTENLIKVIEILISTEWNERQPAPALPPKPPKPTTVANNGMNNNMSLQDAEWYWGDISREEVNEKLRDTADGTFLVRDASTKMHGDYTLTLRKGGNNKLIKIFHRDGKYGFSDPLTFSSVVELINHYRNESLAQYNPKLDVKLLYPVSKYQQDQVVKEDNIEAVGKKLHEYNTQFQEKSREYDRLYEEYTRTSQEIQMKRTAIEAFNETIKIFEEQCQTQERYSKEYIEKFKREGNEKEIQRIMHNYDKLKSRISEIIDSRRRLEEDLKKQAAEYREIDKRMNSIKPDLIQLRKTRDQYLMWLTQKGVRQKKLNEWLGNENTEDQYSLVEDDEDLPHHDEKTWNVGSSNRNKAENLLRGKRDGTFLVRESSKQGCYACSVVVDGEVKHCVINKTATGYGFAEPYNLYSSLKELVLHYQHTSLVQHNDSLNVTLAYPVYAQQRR

Compound	pIC50 (PI3K-alpha)	pIC50 (PI3K-gamma; PI3Kγ Avg. IC50)	pIC50 (PI3K-gamma; read-out: PI3Kγ Avg. IC50)
COc1ccc2c(c1)c(/C=C1\Oc3cc(O)ccc3C1=O)cn2CCCC#N [Compound 511, 4-{3-[(Z)-(6-hydroxy-3-oxo-1-benzofuran-2(3H)-ylidene)methyl]-5-methoxy-1Hindol-1-yl}butanenitrile]	7.68	6.81	–
COc1ccc2[nH]cc(C=C3Oc4cc(C(N)=O)ccc4C3=O)c2c1 [Compound 495, 2-[(5-methoxy-1H-indol-3-yl)methylene]-3-oxo-2,3-dihydro-1-benzofuran-6-carboxamide]	< 5.00	< 5.00	–
CNC(=O)Nc1ccc2c(c1)C(=O)/C(=C/c1cn(CCCN3CCOCC3)c3ccc(OC)cc13)O2 [Compound 580, 1-[(2Z)-2-{[5-methoxy-1-(3-morpholin-4-ylpropyl)-1H-indol-3-yl]methylene}-3-oxo-2,3-dihydro-1-benzofuran-5-yl]-3-methylurea]	7.28	5.87	–
COc1ccc2[nH]cc(/C=C3\Oc4cc(-c5nn[nH]n5)ccc4C3=O)c2c1 [Compound 509, (2Z)-2-[(5-methoxy-1H-indol-3-yl)methylene]-6-(2H-tetrazol-5-yl)-1-benzofuran-3(2H)-one]	6.32	5.61	–
CNC(=O)Nc1ccc2c(c1)C(=O)/C(=C/c1c(C#N)[nH]c3ccc(OC)cc13)O2 [Compound 604, 1-{(2Z)-2-[(2-cyano-5-methoxy-1H-indol-3-yl)methylidene]-3-oxo-2,3-dihydro-1-benzofuran-5-yl}-3-methylurea]	7.98	< 5.00	–
4-hydroxy-2-({5-methoxy-2-methyl-1-[2-(4-methylpiperazin-1-yl)ethyl]-1H-indol-3-yl}methylene)-1-benzofuran-3(2H)-one [Example 129]	6.31	–	5.35
COc1ccc2[nH]cc(/C=C3\Oc4cc(O)c(O)cc4C3=O)c2c1 [Compound 529, (2Z)-5,6-dihydroxy-2-[(5-methoxy-1H-indol-3-yl)methylene]-1-benzofuran-3(2H)-one]	6.65	5.09	–
CNC(=O)Nc1ccc2c(c1)C(=O)/C(=C/c1c(C)n(CCCN3CCCC3)c3ccc(OC)cc13)O2 [Compound 597, 1-[(2Z)-2-{[5-methoxy-2-methyl-1-(3-pyrrolidin-1-ylpropyl)-1H-indol-3-yl]methylidene}-3-oxo-2,3-dihydro-1-benzofuran-5-yl]-3-methylurea]	8.46	6.35	–
COc1ccc2[nH]cc(/C=C3\Oc4cc(O)cc(CO)c4C3=O)c2c1 [Compound 517, (2Z)-6-hydroxy-4-(hydroxymethyl)-2-[(5-methoxy-1H-indol-3-yl)methylene]-1-benzofuran-3(2H)-one]	7.08	6.15	–
6,7-dihydroxy-2-{[5-methoxy-2-methyl-1-(4-morpholin-4-ylbutyl)-1H-indol-3-yl]methylene}-1-benzofuran-3(2H)-one [Example 133]	6.64	–	6.02
CNC(=O)Nc1ccc2c(c1)C(=O)/C(=C/c1c(CN(C)C)[nH]c3ccc(OC)cc13)O2 [Compound 612, 1-[(2Z)-2-({2-[(dimethylamino)methyl]-5-methoxy-1H-indol-3-yl}methylidene)-3-oxo-2,3-dihydro-1-benzofuran-5-yl]-3-methylurea]	7.81	6.92	–
CNC(=O)Nc1ccc2c(c1)C(=O)/C(=C/c1cn(CCCN(C)C)c3ccc(OC)cc13)O2 [Compound 520, 1-[(2Z)-2-({1-[3-(dimethylamino)propyl]-5-methoxy-1H-indol-3-yl}methylene)-3-oxo-2,3-dihydro-1-benzofuran-5-yl]-3-methylurea]	7.14	5.40	–
COc1ccc2c(c1)c(C=C1Oc3cccc(O)c3C1=O)c(C)n2CCCCN1CCN(CCO)CC1 [Example 137, 4-hydroxy-2-[(1-{4-[4-(2-hydroxyethyl)piperazin-1-yl]butyl}-5-methoxy-2-methyl-1H-indol-3-yl)methylene]-1-benzofuran-3(2H)-one]	6.32	5.56	–
CNC(=O)Nc1ccc2c(c1)C(=O)/C(=C/c1c(C(=O)NC)[nH]c3ccc(OC)cc13)O2 [Compound 603, 5-methoxy-N-methyl-3-[(Z)-{5-[(methylcarbamoyl)amino]-3-oxo-1-benzofuran-2(3H)-ylidene}methyl]-1H-indole-2-carboxamide]	8.19	6.99	–
COc1ccc(NC(=O)Nc2ccc3c(c2)C(=O)/C(=C/c2cn(CCCN(C)C)c4ccc(OC)cc24)O3)cc1 [Compound 540, 1-[(2Z)-2-({1-[3-(dimethylamino)propyl]-5-methoxy-1H-indol-3-yl}methylene)-3-oxo-2,3-dihydro-1-benzofuran-5-yl]-3-(4-methoxyphenyl)urea]	6.99	5.81	–
CNC(=O)Nc1ccc2c(c1)C(=O)/C(=C/c1c(C)n(CCCN3CCN(C)CC3)c3ccc(OC)cc13)O2 [Compound 586, 1-[(2Z)-2-({5-methoxy-2-methyl-1-[3-(4-methylpiperazin-1-yl)propyl]-1H-indol-3-yl}methylene)-3-oxo-2,3-dihydro-1-benzofuran-5-yl]-3-methylurea]	8.46	5.99	–
COc1ccc2c(c1)c(C=C1Oc3c(ccc(O)c3O)C1=O)c(C)n2CCCCCl [Example 122, 2-{[1-(4-chlorobutyl)-5-methoxy-2-methyl-1H-indol-3-yl]methylene}-6,7-dihydroxyl-1-benzofuran-3(2H)-one]	6.86	5.82	–
COc1ccc2c(c1)c(/C=C1\Oc3ccc(NC(=O)NCCN)cc3C1=O)cn2CCN1CCN(C)CC1 [Compound 549, 1-(2-aminoethyl)-3-[(2Z)-2-({5-methoxy-1-[2-(4-methylpiperazin-1-yl)ethyl]-1Hindol-3-yl}methylene)-3-oxo-2,3-dihydro-1-benzofuran-5-yl]urea]	7.87	5.53	–
CNC(=O)Nc1ccc2c(c1)C(=O)/C(=C/c1c(-c3nc(C4CC4)no3)[nH]c3ccc(OC)cc13)O2 [Compound 592, 1-[(2Z)-2-{[2-(3-cyclopropyl-1,2,4-oxadiazol-5-yl)-5-methoxy-1H-indol-3-yl]methylene}-3-oxo-2,3-dihydro-1-benzofuran-5-yl]-3-methylurea]	8.26	5.05	–
CCNC(=O)Nc1ccc2c(c1)C(=O)/C(=C/c1c[nH]c3ccc(OC)cc13)O2 [Compound 489, 1-ethyl-3-{(2Z)-2-[(5-methoxy-1H-indol-3-yl)methylene]-3-oxo-2,3-dihydro-1-benzofuran-5-yl}urea]	5.21	< 5.00	–
COc1ccc2[nH]c(C)c(C=C3Oc4c(O)cccc4C3=O)c2c1 [Example 120, 7-hydroxy-2-[(5-methoxy-2-methyl-1H-indol-3-yl)methylene]-1-benzofuran-3(2H)-one]	5.81	4.99	–
CNC(=O)Nc1ccc2c(c1)C(=O)/C(=C/c1cn(C)c3cccc(-c4ccccc4)c13)O2 [Compound 528, 1-methyl-3-{(2Z)-2-[(1-methyl-4-phenyl-1H-indol-3-yl)methylene]-3-oxo-2,3-dihydro-1-benzofuran-5-yl}urea]	< 5.00	< 5.00	–
COc1cc(-c2cccnc2)c2[nH]cc(/C=C3\Oc4cc(O)ccc4C3=O)c2c1 [Compound 480, (2Z)-6-hydroxy-2-[(5-methoxy-7-pyridin-3-yl-1H-indol-3-yl)methylene]-1-benzofuran-3(2H)-one]	7.09	5.45	–
